Experimental data taken from patent US20250169496A1, “USE OF 2-AMINO-3-HYDROXY-3-METHYLBUTYRIC ACID AND/OR 2-AMINO-3-(4-HYDROXYPHENYL) BUTYRIC ACID” (NANJING TIANNONG BIOTECHNOLOGY CO., LTD., priority 2021, published 2025).

Key:
wheat powdery mildew = experiment: Induced resistance of wheat seedlings to powdery mildew (greenhouse pots); format: in vivo, wheat (NAU0686); settings: for Relative immune effect: wheat powdery mildew; for Number of mycelia and conidium yield on wheat leaves: 10-10,000 nM, with the increase of concentration
Protocol: Take 2-amino-3-hydroxy-3-methylbutyric acid, dissolve it in distilled water, then dilute the solution with distilled water by gradient into 10 nM, 100 nM, 1,000 nM and 10,000 nM solutions, and set a blank control. Accelerate germination of wheat (NAU0686) seeds, then sow them in sterilized soil bowls, and culture them in a greenhouse of 23 (±1)° C. and 12 h illumination. Spray the 2-amino-3-hydroxy-3-methylbutyric acid solutions at the above concentrations to the stems and leaves of wheat seedlings when the seedlings have grown to have one leaf and one shoot, at an interval of 24 h and twice in total, evenly sprinkle fresh powdery wheat spores on the wheat leaves after 24 h, 3 pots each treatment, 20 plants per pot. Investigate the morbidity level of the wheat in each treatment after 10 d, record the morbidity level according to the wheat powdery mildew grading standard in the Pesticide—Guidelines for the Field Efficacy Trials(I) and calculate the disease index and relative immune effect by the calculation method same as that for the disease index and relative immune effect of tomato spotted wilt. Wheatpowdery mildew grading standard (with leaf as a unit): • Level 1: The area of the disease spots accounts for less than 5% of the whole leaf area; • Level 3: The area of the disease spots accounts for6%-15% of the whole leaf area; • Level 5: The area of the disease spots accounts for 16%-25% of the whole leaf area; • Level 7: The area of the disease spots accounts for26%-50% of the whole leaf area; • Level 9: The area of the disease spots accounts for more than 50% of the whole leaf area.

[1] = system: tea under low-temperature stress; experiment: Tea seedlings under low-temperature stress; format: in vivo, tea (Baiye 1#); settings: for PIABS (photosynthetic performance index): tea seedlings after 24 h at −4° C.; for Cold damage index: tea seedlings, 24 h at −4° C., recovered 3 d; for Decrease of cold damage index / Increase of PIABS: 10,000 nM (so in the source), tea, low-temperature stress, vs 0 nM
Protocol: The tea trees for test are cutting seedling Baiye 1#. Select tea seedlings with consistent growth, move them into plastic bowls with a diameter of 18 cm, put them in a greenhouse of 25° C. and RH 60%-70%, adapt to growth for about one week, and carry out the test. […] The spray treatment method is the same as the Arabidopsis treatment method in Embodiment 6, the time of low-temperature stress is 24 h, and the temperature is set at −4° C. Take out tea seedlings after stress, conduct dark treatment at room temperature for 30 min, then determine the chlorophyll fluorescence of leaves at the top of tea seedlings by plant efficiency Handy-PEA, then put them in a 25° C. greenhouse and recover them for 3 d, observe and calculate the cold damage condition and grade it. The statistics and grading standard of the cold damage index is shown in Table 12, the calculation formula is as follows and the results are as shown in Table 13. [formula] [table]

[2] = system: wheat under drought stress; experiment: Hydroponic wheat under drought stress (25% PEG-6000); format: in vivo; settings: for Drought damage index / Dry weight, overground part / Dry weight, underground part / Fresh weight, overground part / Fresh weight, underground part / Root length: wheat, 6 d 25% PEG-6000, recovered 7 d; for Decrease of drought damage index / Increase of fresh weight of the overground part / Increase of fresh weight of the underground part / Increase of root length of wheat seedlings: compared to the control, drought stress
Protocol: Use a 6-mesh screen as a container for hydroponic culture of wheat, 50 grains per screen, replace the ½ Hoagland nutrient solution once every two days, spray 2-amino-3-hydroxy-3-methylbutyric acid solutions at2-amino-3-hydroxy-3-methylbutyric acid concentrations of 0, 100 and 1,000 nM when the wheat grows to the stage of two leaves and one shoot, and meanwhile, add 0.02% Tween 20 as a surfactant; after two days of continuous spray, replace the hydroponic nutrient solution with a ½ Hoagland nutrient solution containing 25% PEG-6000 for stress treatment,rewater after 6 d of drought stress, recover growth in a normal nutrient solution for 7 d, then observe and determine the drought damage index, and determine the root length and biomass.
The manifestation features after drought damage of leaves are similar to those after salt damage. By taking reference to the salt damage evaluation indexes, drought damage rate and drought damage index are introduced.

Row | SMILES | Relative immune effect (wheat powdery mildew; 10 nM) | Relative immune effect (wheat powdery mildew; 100 nM) | Relative immune effect (wheat powdery mildew; 10,000 nM) | Number of mycelia and conidium yield on wheat leaves (wheat powdery mildew) | PIABS (photosynthetic performance index) ([1]; 10 nM) | Cold damage index ([1]; 10 nM) | PIABS (photosynthetic performance index) ([1]; 100 nM) | Cold damage index ([1]; 100 nM) | PIABS (photosynthetic performance index) ([1]; 1,000 nM) | Cold damage index ([1]; 1,000 nM) | Decrease of cold damage index [1] | Increase of PIABS [1] | Drought damage index ([2]; 100 nM) | Dry weight, overground part ([2]; 100 nM) | Dry weight, underground part ([2]; 100 nM) | Fresh weight, overground part ([2]; 100 nM) | Fresh weight, underground part ([2]; 100 nM) | Root length ([2]; 100 nM) | Decrease of drought damage index ([2]; 1,000 nM) | Increase of fresh weight of the overground part ([2]; 1,000 nM) | further results
1 | CC(c1ccc(O)cc1)C(N)C(=O)O (centres unmarked) [2-amino-3-(4-hydroxyphenyl) butyric acid] | 20.17% | 34.92% | 71.12% | decreased significantly | 31.94 ± 1.37bc | 55% | 34.67 ± 3.27ab | 35% | 38.56 ± 2.23a | 30% | 40% | 90.8% | 47% | 0.83 ± 0.01a g | 0.36 ± 0.01a g | 7.34 ± 0.18b g | 3.70 ± 0.03b g | 14.02 ± 0.03a cm | 49% | 45.66% | PIABS (photosynthetic performance index) ([1]; 1 nM): 28.10 ± 3.10cd; Cold damage index ([1]; 1 nM): 60%; Increase of fresh weight of the underground part ([2]; 1,000 nM): 57.93%; Increase of root length of wheat seedlings ([2]; 1,000 nM): 11.47%; Drought damage index ([2]; 1,000 nM): 25%; Dry weight, overground part ([2]; 1,000 nM): 0.93 ± 0.05a g; Dry weight, underground part ([2]; 1,000 nM): 0.39 ± 0.01a g; Fresh weight, overground part ([2]; 1,000 nM): 8.90 ± 0.15a g; Fresh weight, underground part ([2]; 1,000 nM): 4.58 ± 0.01a g; Root length ([2]; 1,000 nM): 14.67 ± 007a cm
2 | CC(C)(O)C(N)C(=O)O (centres unmarked) [2-amino-3-hydroxy-3-methylbutyric acid] | 16.85% | 27.90% | 65.68% | decreased significantly | 28.35 ± 1.66c | 65% | 30.67 ± 2.07bc | 45% | 35.23 ± 1.96b | 30% | 60% | 73% | 45% | 0.80 ± 0.01b g | 0.33 ± 0.01a g | 7.27 ± 0.02b g | 3.65 ± 0.01b g | 13.94 ± 0.03a cm | 51% | 44.92% | Relative immune effect (wheat powdery mildew; 1,000 nM): 47.24%; Disease index (wheat powdery mildew; concentration greater than or equal to 1,000 nM, susceptible wheat, powdery mildew): lower than 50; PIABS (photosynthetic performance index) ([1]; 10,000 nM): 40.16 ± 2.15a; Cold damage index ([1]; 10,000 nM): 15%; Increase of fresh weight of the underground part ([2]; 1,000 nM): 55.02%; Increase of root length of wheat seedlings ([2]; 1,000 nM): 11.30%; Drought damage index ([2]; 1,000 nM): 26%; Dry weight, overground part ([2]; 1,000 nM): 0.92 ± 0.05a g; Dry weight, underground part ([2]; 1,000 nM): 0.37 ± 0.01a g; Fresh weight, overground part ([2]; 1,000 nM): 8.84 ± 0.09a g; Fresh weight, underground part ([2]; 1,000 nM): 4.48 ± 0.02a g; Root length ([2]; 1,000 nM): 14.58 ± 0.01a cm
